Results as given in PubChem BioAssay (NCI).
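Cells were grown in 96-well plates and exposed to each compound for 48 hours at five concentrations; endpoints were interpolated linearly between bracketing concentrations, or set to the highest concentration if not reached. Abbreviation: GI50, concentration required for 50% inhibition of growth. TGI denotes the concentration required for complete inhibition of growth.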

What was measured:
Assay in all cases: NCI-60 cell line screen, 48 h
RXF 393 renal = tested on: RXF 393 renal
RPMI-8226 leukemia = tested on: RPMI-8226 leukemia
HT29 colon = tested on: HT29 colon
DU-145 prostate = tested on: DU-145 prostate
SF-268 CNS = tested on: SF-268 CNS
BT-549 breast = tested on: BT-549 breast
SR leukemia = tested on: SR leukemia
EKVX NSCLC = tested on: EKVX NSCLC
OVCAR-4 ovarian = tested on: OVCAR-4 ovarian
SN12C renal = tested on: SN12C renal
CCRF-CEM leukemia = tested on: CCRF-CEM leukemia
SNB-75 CNS = tested on: SNB-75 CNS
K-562 leukemia = tested on: K-562 leukemia
MOLT-4 leukemia = tested on: MOLT-4 leukemia
IGROV1 ovarian = tested on: IGROV1 ovarian
KM12 colon = tested on: KM12 colon
UACC-257 melanoma = tested on: UACC-257 melanoma
OVCAR-8 ovarian = tested on: OVCAR-8 ovarian
OVCAR-5 ovarian = tested on: OVCAR-5 ovarian
NCI-H226 lung = tested on: NCI-H226 lung
SW-620 colon = tested on: SW-620 colon
MALME-3M melanoma = tested on: MALME-3M melanoma
A498 renal = tested on: A498 renal
SK-MEL-28 melanoma = tested on: SK-MEL-28 melanoma
A549 NSCLC = tested on: A549 NSCLC
786-0 renal = tested on: 786-0 renal
NCI-H522 lung = tested on: NCI-H522 lung
OVCAR-3 ovarian = tested on: OVCAR-3 ovarian
NCI-H460 lung = tested on: NCI-H460 lung
CAKI-1 renal = tested on: CAKI-1 renal
M14 melanoma = tested on: M14 melanoma
MCF7 breast = tested on: MCF7 breast
HS 578T breast = tested on: HS 578T breast
SK-MEL-5 melanoma = tested on: SK-MEL-5 melanoma
HOP-92 NSCLC = tested on: HOP-92 NSCLC
HCT-116 colon = tested on: HCT-116 colon
PC-3 prostate = tested on: PC-3 prostate
TK-10 renal = tested on: TK-10 renal
SNB-19 CNS = tested on: SNB-19 CNS
MDA-MB-231 breast = tested on: MDA-MB-231 breast
LOX IMVI melanoma = tested on: LOX IMVI melanoma
ACHN renal = tested on: ACHN renal
COLO 205 colon = tested on: COLO 205 colon
U251 CNS = tested on: U251 CNS
NCI-H23 lung = tested on: NCI-H23 lung
HCT-15 colon = tested on: HCT-15 colon
T-47D breast = tested on: T-47D breast
HCC-2998 colon = tested on: HCC-2998 colon
SF-295 CNS = tested on: SF-295 CNS
HL-60(TB) leukemia = tested on: HL-60(TB) leukemia
SF-539 CNS = tested on: SF-539 CNS
NCI/ADR-RES ovarian = tested on: NCI/ADR-RES ovarian
UO-31 renal = tested on: UO-31 renal
MDA-MB-435 = tested on: MDA-MB-435
UACC-62 melanoma = tested on: UACC-62 melanoma
SK-MEL-2 melanoma = tested on: SK-MEL-2 melanoma
SK-OV-3 ovarian = tested on: SK-OV-3 ovarian
HOP-62 NSCLC = tested on: HOP-62 NSCLC
MDA-N = tested on: MDA-N

COc1ccc2c(c1)C(=O)c1c-2n(CCCNCCO)c(=O)c2ccccc12
GI50 (RXF 393 renal): 963 nM | TGI (RXF 393 renal): 3950 nM | GI50 (RPMI-8226 leukemia): 72.7 nM | TGI (RPMI-8226 leukemia): 594 nM | GI50 (HT29 colon): 76.4 nM | TGI (HT29 colon): 1760 nM | GI50 (DU-145 prostate): 46.9 nM | TGI (DU-145 prostate): 331 nM | GI50 (SF-268 CNS): 120 nM | TGI (SF-268 CNS): 1430 nM | GI50 (BT-549 breast): 127 nM | TGI (BT-549 breast): 672 nM | GI50 (SR leukemia): < 20.7 nM | TGI (SR leukemia): 1800 nM | GI50 (EKVX NSCLC): 349 nM | TGI (EKVX NSCLC): 1500 nM | GI50 (OVCAR-4 ovarian): 301 nM | TGI (OVCAR-4 ovarian): 2230 nM | GI50 (SN12C renal): 118 nM | TGI (SN12C renal): 1420 nM | GI50 (CCRF-CEM leukemia): 22.7 nM | TGI (CCRF-CEM leukemia): 1050 nM | GI50 (SNB-75 CNS): 261 nM | TGI (SNB-75 CNS): 1250 nM | GI50 (K-562 leukemia): 121 nM | GI50 (MOLT-4 leukemia): < 18.2 nM | TGI (MOLT-4 leukemia): 5280 nM | GI50 (IGROV1 ovarian): 150 nM | TGI (IGROV1 ovarian): 2330 nM | GI50 (KM12 colon): 200 nM | TGI (KM12 colon): 1240 nM | GI50 (UACC-257 melanoma): 541 nM | TGI (UACC-257 melanoma): 2130 nM | GI50 (OVCAR-8 ovarian): 90.8 nM | TGI (OVCAR-8 ovarian): 1900 nM | GI50 (OVCAR-5 ovarian): 346 nM | TGI (OVCAR-5 ovarian): 1110 nM | GI50 (NCI-H226 lung): 486 nM | TGI (NCI-H226 lung): 2310 nM | GI50 (SW-620 colon): 53 nM | TGI (SW-620 colon): 1460 nM | GI50 (MALME-3M melanoma): 178 nM | TGI (MALME-3M melanoma): 1240 nM | GI50 (A498 renal): 80.7 nM | TGI (A498 renal): 520 nM | GI50 (SK-MEL-28 melanoma): 897 nM | TGI (SK-MEL-28 melanoma): 2490 nM | GI50 (A549 NSCLC): 62.6 nM | TGI (A549 NSCLC): 310 nM | GI50 (786-0 renal): 67.8 nM | TGI (786-0 renal): 568 nM | GI50 (NCI-H522 lung): 17.4 nM | TGI (NCI-H522 lung): 95.5 nM | GI50 (OVCAR-3 ovarian): 331 nM | TGI (OVCAR-3 ovarian): 1410 nM | TGI (NCI-H460 lung): 137 nM | GI50 (CAKI-1 renal): 107 nM | TGI (CAKI-1 renal): 659 nM | GI50 (M14 melanoma): 320 nM | TGI (M14 melanoma): 1480 nM | GI50 (MCF7 breast): < 11.5 nM | TGI (MCF7 breast): 434 nM | GI50 (HS 578T breast): 262 nM | TGI (HS 578T breast): 2240 nM | GI50 (SK-MEL-5 melanoma): 63.4 nM | TGI (SK-MEL-5 melanoma): 202 nM | GI50 (HOP-92 NSCLC): 87 nM | TGI (HOP-92 NSCLC): 531 nM | GI50 (HCT-116 colon): 79.9 nM | TGI (HCT-116 colon): 534 nM | GI50 (PC-3 prostate): 272 nM | TGI (PC-3 prostate): 2290 nM | GI50 (TK-10 renal): 316 nM | TGI (TK-10 renal): 3030 nM | GI50 (SNB-19 CNS): 117 nM | TGI (SNB-19 CNS): 1060 nM | GI50 (MDA-MB-231 breast): 543 nM | TGI (MDA-MB-231 breast): 2330 nM | GI50 (LOX IMVI melanoma): 47.3 nM | TGI (LOX IMVI melanoma): 224 nM | GI50 (ACHN renal): 39.7 nM | TGI (ACHN renal): 240 nM | GI50 (COLO 205 colon): 74.6 nM | TGI (COLO 205 colon): 1650 nM | GI50 (U251 CNS): 82.1 nM | TGI (U251 CNS): 1170 nM | GI50 (NCI-H23 lung): 120 nM | TGI (NCI-H23 lung): 563 nM | GI50 (HCT-15 colon): 154 nM | TGI (HCT-15 colon): 1180 nM | GI50 (T-47D breast): 56 nM | TGI (T-47D breast): 1620 nM | GI50 (HCC-2998 colon): 109 nM | TGI (HCC-2998 colon): 479 nM | GI50 (SF-295 CNS): 61.7 nM | TGI (SF-295 CNS): 425 nM | GI50 (HL-60(TB) leukemia): 169 nM | TGI (HL-60(TB) leukemia): 1690 nM | GI50 (SF-539 CNS): 76.4 nM | TGI (SF-539 CNS): 408 nM | GI50 (NCI/ADR-RES ovarian): 807 nM | TGI (NCI/ADR-RES ovarian): 3380 nM | GI50 (UO-31 renal): 90.4 nM | TGI (UO-31 renal): 618 nM | GI50 (MDA-MB-435): 322 nM | TGI (MDA-MB-435): 1620 nM | GI50 (UACC-62 melanoma): 312 nM | TGI (UACC-62 melanoma): 1850 nM | GI50 (SK-MEL-2 melanoma): 734 nM | TGI (SK-MEL-2 melanoma): 2570 nM | GI50 (SK-OV-3 ovarian): 218 nM | TGI (SK-OV-3 ovarian): 1420 nM | GI50 (HOP-62 NSCLC): 57.5 nM | TGI (HOP-62 NSCLC): 462 nM

COC(=O)C1=C2SCc3ccc(cc3)CSC3=C(C(=O)OC)SC(=C(S2)S1)S3
TGI (RXF 393 renal): > 100000 nM | TGI (RPMI-8226 leukemia): > 100000 nM | TGI (DU-145 prostate): > 100000 nM | TGI (OVCAR-4 ovarian): > 100000 nM | TGI (SN12C renal): > 100000 nM | TGI (SNB-75 CNS): > 100000 nM | TGI (K-562 leukemia): > 100000 nM | TGI (MOLT-4 leukemia): > 100000 nM | TGI (KM12 colon): > 100000 nM | TGI (UACC-257 melanoma): > 100000 nM | TGI (NCI-H226 lung): > 100000 nM | TGI (SW-620 colon): > 100000 nM | TGI (A498 renal): > 100000 nM | TGI (SK-MEL-28 melanoma): > 100000 nM | TGI (A549 NSCLC): > 100000 nM | TGI (786-0 renal): > 100000 nM | TGI (OVCAR-3 ovarian): > 100000 nM | TGI (NCI-H460 lung): > 100000 nM | TGI (CAKI-1 renal): > 100000 nM | TGI (M14 melanoma): > 100000 nM | TGI (MCF7 breast): > 100000 nM | TGI (SK-MEL-5 melanoma): > 100000 nM | TGI (HCT-116 colon): > 100000 nM | TGI (PC-3 prostate): > 100000 nM | TGI (TK-10 renal): > 100000 nM | TGI (SNB-19 CNS): > 100000 nM | TGI (MDA-MB-231 breast): > 100000 nM | TGI (ACHN renal): > 100000 nM | TGI (COLO 205 colon): > 100000 nM | TGI (U251 CNS): > 100000 nM | TGI (MDA-N): > 100000 nM | TGI (T-47D breast): > 100000 nM | TGI (HCC-2998 colon): > 100000 nM | TGI (SF-295 CNS): > 100000 nM | TGI (HL-60(TB) leukemia): 9510 nM | TGI (UO-31 renal): > 100000 nM | TGI (MDA-MB-435): > 100000 nM | TGI (UACC-62 melanoma): > 100000 nM | TGI (SK-MEL-2 melanoma): > 100000 nM | TGI (SK-OV-3 ovarian): > 100000 nM | TGI (HOP-62 NSCLC): > 100000 nM
